The source of these data is patent US10519134B2, “Pyrazole compounds and methods of making and using same” (Lundbeck La Jolla Research Center, Inc., priority 2015, dated 2019).

Assay [1] has as its target T1, MAGL (Mus musculus, UniProt O35678).
T1 construct: Proteomes (mouse brain membrane fraction or cell lysates); from tissue; host or cells: mouse brain membrane fraction (or cell lysates)
T1 sequence (O35678 1-303): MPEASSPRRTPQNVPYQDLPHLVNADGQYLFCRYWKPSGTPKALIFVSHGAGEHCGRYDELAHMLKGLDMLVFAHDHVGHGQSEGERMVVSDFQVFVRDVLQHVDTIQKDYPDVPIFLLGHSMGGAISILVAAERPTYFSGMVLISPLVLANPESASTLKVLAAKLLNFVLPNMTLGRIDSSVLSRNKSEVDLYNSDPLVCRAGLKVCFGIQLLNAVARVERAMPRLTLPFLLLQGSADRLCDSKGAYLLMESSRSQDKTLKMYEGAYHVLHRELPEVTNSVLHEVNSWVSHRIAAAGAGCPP
Description: In vitro competitive activity-based protein profiling (mouse), MAGL gel band. The note with it: for IC50: mouse; for inhibition at 1 µM: read-out: MAGL % inh. 1 μM. Type of assay: biochemical. In a few lines:
(§1)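 Competitive ABPP: inhibitors at varying concentrations were given 30 min at 37 °C with mouse brain membranes or cell lysates (1.0 mg/mL total protein) before 30 min labelling by FP-Rh or HT-01 (stock 50 μM in DMSO). Residual hydrolase activity read as in-gel fluorescence of MAGL and FAAH bands.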

Assay [2] deals with T2, FAAH (Mus musculus, UniProt O08914).
T2 construct: Proteomes (mouse brain membrane fraction or cell lysates); from tissue; host or cells: mouse brain membrane fraction (or cell lysates)
T2 sequence (O08914 1-579): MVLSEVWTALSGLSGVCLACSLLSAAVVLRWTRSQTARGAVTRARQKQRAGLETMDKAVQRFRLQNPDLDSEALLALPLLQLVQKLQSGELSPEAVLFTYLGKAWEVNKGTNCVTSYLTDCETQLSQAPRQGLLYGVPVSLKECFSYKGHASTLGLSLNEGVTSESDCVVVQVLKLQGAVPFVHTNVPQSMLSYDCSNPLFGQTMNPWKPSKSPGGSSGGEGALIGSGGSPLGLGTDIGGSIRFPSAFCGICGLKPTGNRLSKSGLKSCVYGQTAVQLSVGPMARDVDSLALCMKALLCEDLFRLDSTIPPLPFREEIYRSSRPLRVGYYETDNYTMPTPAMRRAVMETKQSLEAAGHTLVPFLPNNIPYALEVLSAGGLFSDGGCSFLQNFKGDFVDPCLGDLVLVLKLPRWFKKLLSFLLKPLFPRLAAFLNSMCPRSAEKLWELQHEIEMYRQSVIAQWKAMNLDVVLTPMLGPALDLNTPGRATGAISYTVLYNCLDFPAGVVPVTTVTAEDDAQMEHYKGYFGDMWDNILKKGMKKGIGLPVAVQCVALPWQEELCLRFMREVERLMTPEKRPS
As to the kind of experiment: In vitro competitive activity-based protein profiling (mouse), FAAH gel band. Type of assay: biochemical. The note with it: for IC50: mouse; for inhibition at 1 µM: read-out: FAAH % inh. 1 μM. The method, boiled down:
as §1

For assay [3], the target named is T1, MAGL. As to the kind of experiment: Mouse brain proteomes from inhibitor treated mice (oral gavage, sacrificed 4 h after administration). Type of assay: in vivo. The note with it: read-out: MAGL % inh. 5 mg/kg. The method, then: Compounds are tested to assess their MAGL and other serine hydrolase activity using the following in vitro and in vivo assays.
Preparation of Mouse Brain Proteomes from Inhibitor Treated Mice.
Inhibitors were administered to wild-type C57Bl/6J by oral gavage in a vehicle of polyethylene glycol. Each animal was sacrificed 4 h following administration and brain proteomes were prepared and analyzed according to previously established methods (See Niphakis, M. J., et al. (2011) ACS Chem. Neurosci. and Long, J. Z., et al. Nat. Chem. Biol. 5:37-44)

Each structure is given as a SMILES string. Some results are limits rather than exact numbers.

In general, IC50 refers to the concentration needed to halve the response being measured. Lower therefore signals greater potency. As to `CC(=O)Nc1ccn(C(=O)N2CCC3(CCCN3Cc3ccc(Cl)cc3N3CCCCC3)CC2)n1` [Example 33, N-(1-(1-(4-chloro-2-(piperidin-1-yl)benzyl)-1,8-diazaspiro[4.5]decane-8-carbonyl)-1H-pyrazol-3-yl)acetamide], in assay [1], the IC50 is ≤ 100 nM and the inhibition at 1 µM is ≥ 75%. Also, in assay [2], the IC50 was 1000 to 10000 nM and the inhibition at 1 µM is 0 to 25%. In assay [3], the inhibition at 5 mg/kg was in the range of 25 to 50%.

As to `CC(=O)Nc1ccn(C(=O)N2CCC3(CCCN3Cc3ccc(Cl)cc3N3CC4CCC(C3)O4)CC2)n1` [Example 34, N-(1-(1-(2-(8-oxa-3-azabicyclo[3.2.1]octan-3-yl)-4-chlorobenzyl)-1,8-diazaspiro[4.5]decane-8-carbonyl)-1H-pyrazol-3-yl)acetamide], the values for the IC50 in assay [1] and in assay [2] were ≤ 100 nM and 1000 to 10000 nM, respectively. In addition, the figures for the inhibition at 1 µM in assay [1] and in assay [2] were ≥ 75% and 0 to 25%, respectively. The inhibition at 5 mg/kg in assay [3] was in the range of 0 to 25%.

With `CC(=O)Nc1ccn(C(=O)N2CCC3(CCCN3Cc3ccc(Cl)cc3N3CCC4(CC3)CCN(S(C)(=O)=O)C4)CC2)n1` [Example 37, N-(1-(1-(4-chloro-2-(2-(methylsulfonyl)-2,8-diazaspiro[4.5]decan-8-yl)benzyl)-1,8-diazaspiro[4.5]decane-8-carbonyl)-1H-pyrazol-3-yl)acetamide], the values for the IC50 in assay [1] and in assay [2] were ≤ 100 nM and 1000 to 10000 nM, respectively. The inhibition at 1 µM in assay [1] was ≥ 75%; in assay [2], 0 to 25%. The inhibition at 5 mg/kg in assay [3] lay in the range of 0 to 25%.

In the case of `CC(=O)Nc1ccn(C(=O)N2CCC3(CCCN3Cc3ccc(Cl)cc3N3CCC4(C3)CN(S(C)(=O)=O)C4)CC2)n1` [Example 38, N-(1-(1-(4-chloro-2-(2-(methylsulfonyl)-2,6-diazaspiro[3.4]octan-6-yl)benzyl)-1,8-diazaspiro[4.5]decane-8-carbonyl)-1H-pyrazol-3-yl)acetamide], the IC50 in assay [1] was ≤ 100 nM; in assay [2] it was 1000 to 10000 nM. In addition, the inhibition at 1 µM in assay [1] was ≥ 75%; in assay [2], 0 to 25%. In addition, the inhibition at 5 mg/kg in assay [3] was 0 to 25%.

`CC(=O)Nc1ccn(C(=O)N2CCN(Cc3ccc(C(F)(F)F)cc3N3CCCCC3)CC2)n1` [Example 39, N-(1-(4-(2-(piperidin-1-yl)-4-(trifluoromethyl)benzyl)piperazine-1-carbonyl)-1H-pyrazol-3-yl)acetamide]: the values for the IC50 in assay [1] and in assay [2] were ≤ 100 nM and 1000 to 10000 nM, respectively. Further, the inhibition at 1 µM was ≥ 75% in assay [1] and 0 to 25% in assay [2]. Besides, the inhibition at 5 mg/kg in assay [3] was ≥ 75%.

Turning to `CC(=O)Nc1ccn(C(=O)N2CCN(Cc3ccc(C(F)(F)F)cc3N3CC4CCC(C3)O4)CC2)n1` [Example 40, N-(1-(4-(2-(8-oxa-3-azabicyclo[3.2.1]octan-3-yl)-4-(trifluoromethyl)benzyl)piperazine-1-carbonyl)-1H-pyrazol-3-yl)acetamide], in assay [1], the IC50 is ≤ 100 nM and the inhibition at 1 µM was ≥ 75%. Moreover, in assay [2], the IC50 is 1000 to 10000 nM and the inhibition at 1 µM was in the range of 0 to 25%. For the same compound, the inhibition at 5 mg/kg in assay [3] fell in the range of 25 to 50%.

In the case of `CC(=O)Nc1ccn(C(=O)N2CCN(Cc3ccc(C(F)(F)F)cc3N3CCN(S(C)(=O)=O)CC3)CC2)n1` [Example 41, N-(1-(4-(2-(4-(methylsulfonyl)piperazin-1-yl)-4-(trifluoromethyl)benzyl)piperazine-1-carbonyl)-1H-pyrazol-3-yl)acetamide], in assay [1], the IC50 was ≤ 100 nM and the inhibition at 1 µM is ≥ 75%. In addition, in assay [2], the concentration for half-maximal inhibition (IC50) fell in the range of 1000 to 10000 nM and the inhibition at 1 µM is 0 to 25%. Further, the inhibition at 5 mg/kg in assay [3] was in the range of 0 to 25%.

Take `CC(=O)Nc1ccn(C(=O)N2CCN(Cc3ccc(C(F)(F)F)cc3N3CCN(C(C)=O)CC3)CC2)n1` [Example 42, N-(1-(4-(2-(4-acetylpiperazin-1-yl)-4-(trifluoromethyl)benzyl)piperazine-1-carbonyl)-1H-pyrazol-3-yl)acetamide]: in assay [1], the IC50 was ≤ 100 nM and the inhibition at 1 µM was ≥ 75%. Moreover, in assay [2], the 50% inhibitory concentration (IC50) is 1000 to 10000 nM and the inhibition at 1 µM lay in the range of 0 to 25%. Also, the inhibition at 5 mg/kg in assay [3] fell in the range of 0 to 25%.

`CC(=O)Nc1ccn(C(=O)N2CCN(Cc3ccc(C(F)(F)F)cc3N3CCC4(CC3)CCN(S(C)(=O)=O)C4)CC2)n1` [Example 43, N-(1-(4-(2-(2-(methylsulfonyl)-2,8-diazaspiro[4.5]decan-8-yl)-4-(trifluoromethyl)benzyl)piperazine-1-carbonyl)-1H-pyrazol-3-yl)acetamide]: the IC50 is ≤ 100 nM in assay [1] and 1000 to 10000 nM in assay [2]. Moreover, the figures for the inhibition at 1 µM in assay [1] and in assay [2] were ≥ 75% and 0 to 25%, respectively. Besides, the inhibition at 5 mg/kg in assay [3] was 0 to 25%.

As to `CC(=O)Nc1ccn(C(=O)N2CCN(Cc3ccc(C(F)(F)F)cc3N3CCC4(C3)CN(S(C)(=O)=O)C4)CC2)n1` [Example 44, N-(1-(4-(2-(2-(methylsulfonyl)-2,6-diazaspiro[3.4]octan-6-yl)-4-(trifluoromethyl)benzyl)piperazine-1-carbonyl)-1H-pyrazol-3-yl)acetamide], in assay [1], the IC50 is ≤ 100 nM and the inhibition at 1 µM is ≥ 75%. Further, in assay [2], the IC50 lay in the range of 1000 to 10000 nM and the inhibition at 1 µM was 0 to 25%. Also, in assay [3], the inhibition at 5 mg/kg fell in the range of 0 to 25%.

As to `CC(=O)Nc1ccn(C(=O)N2CCN(Cc3ccc(C(F)(F)F)cc3N3CCN(C4CC4)CC3)CC2)n1` [Example 47, N-(1-(4-(2-(4-cyclopropylpiperazin-1-yl)-4-(trifluoromethyl)benzyl)piperazine-1-carbonyl)-1H-pyrazol-3-yl)acetamide], the IC50 in assay [1] was ≤ 100 nM; in assay [2] it was 1000 to 10000 nM. Besides, the figures for the inhibition at 1 µM in assay [1] and in assay [2] were ≥ 75% and 0 to 25%, respectively. Besides, in assay [3], the inhibition at 5 mg/kg was 25 to 50%.

Take `CCN1CCN(c2cc(C(F)(F)F)ccc2CN2CCN(C(=O)n3ccc(NC(C)=O)n3)CC2)CC1` [Example 48, N-(1-(4-(2-(4-ethylpiperazin-1-yl)-4-(trifluoromethyl)benzyl)piperazine-1-carbonyl)-1H-pyrazol-3-yl)acetamide]: the IC50 was ≤ 100 nM in assay [1] and 1000 to 10000 nM in assay [2]. In addition, the inhibition at 1 µM in assay [1] is ≥ 75%; in assay [2] it was 0 to 25%. The inhibition at 5 mg/kg in assay [3] lay within 0 to 25%.

For the compound `CC(=O)Nc1ccn(C(=O)N2CCN(Cc3ccc(C(F)(F)F)cc3N3CC4COCC4C3)CC2)n1` (stereo not shown) [Example 49, N-(1-(4-(2-(dihydro-1H-furo[3,4-c]pyrrol-5(3H,6H,6aH)-yl)-4-(trifluoromethyl)benzyl)piperazine-1-carbonyl)-1H-pyrazol-3-yl)acetamide], in assay [1], the IC50 is ≤ 100 nM and the inhibition at 1 µM is ≥ 75%. Moreover, in assay [2], the IC50 was in the range of 1000 to 10000 nM and the inhibition at 1 µM is 0 to 25%. In addition, in assay [3], the inhibition at 5 mg/kg fell in the range of 0 to 25%.

Consider `CC(=O)Nc1ccn(C(=O)N2CCN(Cc3ccc(Cl)cc3N3CCCCC3)CC2)n1` [Example 50, N-(1-(4-(4-chloro-2-(piperidin-1-yl)benzyl)piperazine-1-carbonyl)-1H-pyrazol-3-yl)acetamide], for which, in assay [1], the IC50 was ≤ 100 nM and the inhibition at 1 µM was ≥ 75%. Moreover, in assay [2], the IC50 fell in the range of 1000 to 10000 nM and the inhibition at 1 µM lay within 0 to 25%. Further, in assay [3], the inhibition at 5 mg/kg was ≥ 75%.
